According to patent publication US20080207952A1, “NOVEL THERAPEUTIC APPLICATIONS OF NATURAL POLY ISOPRENYLATED BENZOPHENONE DERIVATIVES AS DRUGS/MEDICAMENTS” (priority 2003, published 2008):
Where two headings read alike, the source gives them in different places.

Experiments:
[1] = system: Propionibacterium acnes ATCC 11827; test: Anti-microbial activity against Propionibacterium acnes (disk zone of inhibition on Reinforced Clostridial Agar); format: cell-based; conditions: 48 hours at 37° C., anaerobic
Experimental: Propionibacterium acnes was cultured in an anaerobic chamber (Coy Laboratory, USA with an automatic lock purge system). The growth standardization was ensured by culturing the organism in different culture media. The anaerobic conditions were ensured initially with Nitrogen gas and then a mixture of Nitrogen, Hydrogen and Carbon dioxide in a ratio of 80:10:10. A two gas tank arrangement was made wherein only Nitrogen was connected to the transfer chamber and the mixed gas to the main chamber using Gassing Manifold (Hrishi Biotech. Pune, India). The anaerobic media were prepared by heating the media while passing the mixture of gases Nitrogen and Carbon dioxide in a ratio of 4:1 simultaneously. A redox indicator reazurin=0.001% was added to the media. The indicator is colorless in an anaerobic environ and turns blue otherwise. It was dispensed to 30 ml, 20 ml and 10 ml vials sealed with rubber and aluminium clamps and sterilized by autoclaving at 121° C. for 15 minutes.
Propionibacterium acnes ATCC 11827 was sub cultured from broth cultures into vials containing fresh medium. The cultures were then incubated for 48 hours at 37° C. The optical density of the culture at 625 nm was maintained between 0.64 and 0.80 which corresponded to approximately 12×10^6 cells/ml (4.0 MC Mc Farland standard). The anti-microbial susceptibility testing was carried on Reinforced Clostridial Agar (RCA). 0.3 ml of P. acnes culture was inoculated into the culture plates. Culture plates were impregnated with disks comprising varying concentrations of the test naturally occuring poly isoprenylated benzophenone derivatives. The plates were incubated in anaerobic chambers at 37° C. for 48 hours. The test naturally occuring poly isoprenylated benzophenone derivatives were prepared with DMSO as vehicle. The controls included DMSO and Clindac A (Clindamycin Phosphate Gel 1% w/w). The zone of inhibition was measured and expressed in mm. (Table I)

COX 2 = molecular target: T1, COX 2 (Ovis aries, UniProt P79208); test: COX inhibitor screening assay (Cayman, EIA), COX-2; format: biochemical; conditions: prostaglandins by EIA
T1 construct: purchased Cayman chemical company 560101
T1 sequence (P79208 17-603): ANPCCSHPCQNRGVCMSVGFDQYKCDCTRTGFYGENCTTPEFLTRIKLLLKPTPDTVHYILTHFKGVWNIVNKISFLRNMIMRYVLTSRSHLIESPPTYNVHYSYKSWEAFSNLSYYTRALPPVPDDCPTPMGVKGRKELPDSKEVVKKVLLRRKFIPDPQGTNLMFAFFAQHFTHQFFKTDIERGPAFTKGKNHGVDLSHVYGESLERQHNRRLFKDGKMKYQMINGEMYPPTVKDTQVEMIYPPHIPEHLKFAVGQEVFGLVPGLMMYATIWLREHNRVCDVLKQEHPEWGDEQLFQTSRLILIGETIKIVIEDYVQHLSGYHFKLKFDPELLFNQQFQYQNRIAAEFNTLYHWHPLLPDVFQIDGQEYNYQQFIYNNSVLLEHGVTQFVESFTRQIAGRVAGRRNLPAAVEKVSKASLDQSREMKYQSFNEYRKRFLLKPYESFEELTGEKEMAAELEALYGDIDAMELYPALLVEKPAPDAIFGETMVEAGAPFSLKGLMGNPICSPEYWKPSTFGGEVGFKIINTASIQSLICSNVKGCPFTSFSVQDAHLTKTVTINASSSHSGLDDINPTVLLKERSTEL

COX-1 = molecular target: T2, COX-1 (Ovis aries, UniProt P05979); test: COX inhibitor screening assay (Cayman, EIA), COX-1; format: biochemical; conditions: substrate Arachidonate, prostaglandins by EIA
T2 construct: purchased Cayman chemical company 560101
T2 sequence (P05979 25-600): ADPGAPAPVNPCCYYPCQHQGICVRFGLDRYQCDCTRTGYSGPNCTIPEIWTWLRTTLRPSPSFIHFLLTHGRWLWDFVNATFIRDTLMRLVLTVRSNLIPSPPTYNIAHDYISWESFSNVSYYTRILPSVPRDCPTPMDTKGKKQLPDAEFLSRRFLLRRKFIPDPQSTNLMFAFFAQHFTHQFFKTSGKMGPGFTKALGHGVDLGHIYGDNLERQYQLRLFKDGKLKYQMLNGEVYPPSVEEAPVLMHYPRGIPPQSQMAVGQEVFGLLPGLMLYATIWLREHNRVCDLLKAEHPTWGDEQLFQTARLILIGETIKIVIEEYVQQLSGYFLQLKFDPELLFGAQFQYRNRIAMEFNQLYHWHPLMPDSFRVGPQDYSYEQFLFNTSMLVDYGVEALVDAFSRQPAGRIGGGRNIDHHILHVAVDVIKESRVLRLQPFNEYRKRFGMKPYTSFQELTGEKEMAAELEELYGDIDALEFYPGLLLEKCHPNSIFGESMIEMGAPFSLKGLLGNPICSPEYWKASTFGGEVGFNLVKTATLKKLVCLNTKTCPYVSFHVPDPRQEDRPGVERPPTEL
Experimental: Principle: The COX inhibitor screening Assay was performed using the Cox inhibitory kit from Cayman chemical company (Catalog No. 560101) by Enzyme Immuno Assay method. Methodology: Enzyme (COX-1) is allowed to react on substrate Arachidonate in presence & absence of the inhibitor. The amount of prostaglandins (PGF2 ? ) produced by stannous chloride reduction of COX-derived PGFH2 are estimated by EIA (Cayman) using a broadly specific antibody that binds to all major prostaglandin compounds. The decrease in PGs released in presence of inhibitor is directly proportional to inhibition.

[2] = molecular target: T3, Elastase from Pig pancreas (Sus scrofa, UniProt P00772); test: Anti-elastase activity (EnzChek elastase assay kit); format: biochemical; conditions: read after 30 minutes
T3 construct: purchased; host or cells: pig pancreas
Experimental: Principle: The assays were done using the EnzChek elastase assay kit. The substrate is DQ elastin soluble bovine neck ligament. DQ elastin is labeled with BODIPY FL dye. The non-fluorescent substrate can be digested by elastase to yield highly fluorescent fragments and in the presence of inhibitor, the fluorescence intensity is quenched. The fluorescence intensity was measured in a microplate reader ([…].) Methodology: Varying concentrations of the test material were pre-incubated for 10 minutes with the substrate DQ […]. Elastase from Pig pancreas enzyme was then added and the fluorescence intensity was measured after 30 minutes (Em: 485 nm and Ex: 520 nm.).

T3 sequence (P00772 27-266): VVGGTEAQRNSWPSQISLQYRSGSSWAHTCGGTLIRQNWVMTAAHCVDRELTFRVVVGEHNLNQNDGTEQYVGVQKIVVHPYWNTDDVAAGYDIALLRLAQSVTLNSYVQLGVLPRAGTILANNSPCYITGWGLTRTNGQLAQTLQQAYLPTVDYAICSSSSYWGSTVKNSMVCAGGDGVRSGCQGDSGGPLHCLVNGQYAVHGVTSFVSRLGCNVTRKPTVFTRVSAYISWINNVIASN

IC50 (COX 2) [µM] | IC50 (COX-1) [µM] | IC50 ([2]; Table III, read-out: IC50 (anti-elastase, sigmoidal dose response curve) (converted)) [µM] | IC50 ([2]; read-out: IC50 (anti-elastase) (converted)) [µM] | Compound | Zone of Inhibition ([1]; Conc. of the sample 0.5%) [mm] | Zone of Inhibition ([1]; Conc. of the sample 1.0%) [mm] | Zone of Inhibition ([1]; Conc. of the sample 2.0%) [mm] | Zone of Inhibition ([1]; Conc. of the sample 5.0%) [mm] | Zone of Inhibition ([1]; Conc. of the sample 0.01%) [mm] | Zone of Inhibition ([1]; Conc. of the sample 0.03%) [mm] | Zone of Inhibition ([1]; Conc. of the sample 0.05%) [mm] | Zone of Inhibition ([1]; Conc. of the sample 0.1%) [mm] | Zone of Inhibition ([1]; Conc. of the sample 0.3%) [mm]
– | – | – | – | CC(C)=CC[C@H]1C[C@@]23C[C@@H](CC=C(C)C)C(C)(C)[C@@](CC=C(C)C)(C(=O)C(C(=O)c4ccc(O)c(O)c4)=C2OC1(C)C)C3=O [Cambogin 90%, Cambogin] | 0 | 0 | 0 | 0 | – | – | – | – | –
36.5 | 144 | 496 | 498 | C=C(C)[C@@H](CC=C(C)C)C[C@@]12C[C@@H](CC=C(C)C)C(C)(C)[C@@](CC=C(C)C)(C(=O)C(C(=O)c3ccc(O)c(O)c3)=C1O)C2=O [Garcinol] | 16 | 18 | 19 | 20 | 7 | 8 | 10 | 11 | 14
